Data as given in ChEMBL document CHEMBL5634182, “Antifungal Pseuboyenes A-J, Bergamotene-Derived Sesquiterpenoids from a Cold-Seep-Derived Pseudallescheria boydii” (J Nat Prod, 2024).

What was measured:
Assay type in all cases: functional
[1] = tested on: Alternaria brassicae; experiment: Antifungal activity against Alternaria brassicae QDAU-16 assessed as reduction in microbial growth by broth microdilution method
[2] = tested on: Ceratobasidium cornigerum; experiment: Antifungal activity against Ceratobasidium cornigerum QDAU-6 assessed as reduction in microbial growth by broth microdilution method
[3] = tested on: Coniella diplodiella; experiment: Antifungal activity against Coniothyrium diplodiella QDAU-7 assessed as reduction in microbial growth by broth microdilution method
[4] = tested on: Colletotrichum gloeosporioides; experiment: Antifungal activity against Colletotrichum gloeosporioides QDAU-2 assessed as reduction in microbial growth by broth microdilution method
[5] = tested on: Colletotrichum gloeosporioides; experiment: Antifungal activity against Colletotrichum gloeosporioides QDAU-17 assessed as reduction in microbial growth by broth microdilution method
[6] = tested on: Curvularia spicifera; experiment: Antifungal activity against Curvularia spicifera QDAU-18 assessed as reduction in microbial growth by broth microdilution method
[7] = tested on: Fusarium graminearum; experiment: Antifungal activity against Fusarium graminearum QDAU-4 assessed as reduction in microbial growth by broth microdilution method
[8] = tested on: Fusarium oxysporum; experiment: Antifungal activity against Fusarium oxysporum QDAU-8 assessed as reduction in microbial growth by broth microdilution method
[9] = tested on: Fusarium proliferatum; experiment: Antifungal activity against Fusarium proliferatum QDAU-19 assessed as reduction in microbial growth by broth microdilution method
[10] = tested on: Penicillium digitatum; experiment: Antifungal activity against Penicillium digitatum QDAU-14 assessed as reduction in microbial growth by broth microdilution method
[11] = tested on: Botryosphaeria berengeriana; experiment: Antifungal activity against Physalospora piricola QDAU-15 assessed as reduction in microbial growth by broth microdilution method
[12] = tested on: Escherichia coli; experiment: Antibacterial activity against Escherichia coli EMBLC-1 assessed as reduction in microbial growth by broth microdilution method
[13] = tested on: Edwardsiella tarda; experiment: Antibacterial activity against Edwardsiella tarda QDIO-2 assessed as reduction in microbial growth by broth microdilution method
[14] = tested on: Micrococcus luteus; experiment: Antibacterial activity against Micrococcus luteus QDIO-3 assessed as reduction in microbial growth by broth microdilution method
[15] = tested on: Pseudomonas aeruginosa; experiment: Antibacterial activity against Pseudomonas aeruginosa QDIO-4 assessed as reduction in microbial growth by broth microdilution method
[16] = tested on: Vibrio anguillarum; experiment: Antibacterial activity against Vibrio anguillarum QDIO-6 assessed as reduction in microbial growth by broth microdilution method
[17] = tested on: Vibrio harveyi; experiment: Antibacterial activity against Vibrio harveyi QDIO-7 assessed as reduction in microbial growth by broth microdilution method
[18] = tested on: Vibrio vulnificus; experiment: Antibacterial activity against Vibrio vulnificus QDIO-10 assessed as reduction in microbial growth by broth microdilution method

Row | Structure (SMILES) | MIC [1] [µg/mL] | MIC [2] [µg/mL] | MIC [3] [µg/mL] | MIC [4] [µg/mL] | MIC [5] [µg/mL] | MIC [6] [µg/mL] | MIC [7] [µg/mL] | MIC [8] [µg/mL] | MIC [9] [µg/mL] | MIC [10] [µg/mL] | MIC [11] [µg/mL] | MIC [12] [µg/mL] | MIC [13] [µg/mL] | MIC [14] [µg/mL] | MIC [15] [µg/mL] | MIC [16] [µg/mL] | MIC [17] [µg/mL] | MIC [18] [µg/mL]
1 | C=C1C(=O)C[C@@]2(C)C[C@@H]1[C@](C)([C@H](O)CC=C(C)C)O2 | 4 | 8 | 4 | 4 | 8 | 8 | 1 | 4 | 16 | 4 | 4 | – | – | – | – | – | – | –
2 | C=C1CC[C@@]2(O)C[C@@H]1[C@]2(C)CC(=O)C=C(C)C | 1 | 4 | 4 | 8 | 8 | 2 | 4 | 8 | 8 | 4 | 16 | > 64 | > 64 | 16 | 32 | > 64 | 16 | 8
3 | C[C@@H]1[C@H](O)[C@@H](C)/C=C/C=C/C=C/C=C/C=C/C=C/C=C/[C@H](O[C@@H]2O[C@H](C)[C@@H](O)[C@H](N)[C@@H]2O)C[C@@H]2O[C@](O)(C[C@@H](O)C[C@@H](O)[C@H](O)CC[C@@H](O)C[C@@H](O)CC(=O)O[C@H]1C)C[C@H](O)[C@H]2C(=O)O [AMPHOTERICIN B] | 0.5 | 8 | 0.5 | 2 | 8 | 0.5 | 2 | 4 | 1 | 4 | 8 | – | – | – | – | – | – | –
4 | C=C1CC[C@H](O)C[C@@H]1[C@@](C)(O)C(=O)/C=C/C(C)(C)O | – | – | – | – | – | – | – | – | – | – | – | > 64 | 16 | > 64 | > 64 | > 64 | > 64 | 64
5 | C=C1CC[C@@]2(O)C[C@@H]1[C@]2(C)[C@@H](CC=C(C)C)OC(C)=O | 8 | 4 | 4 | 4 | 16 | 1 | 2 | 16 | 2 | 8 | 32 | 8 | 4 | > 64 | > 64 | > 64 | 16 | > 64
6 | C=C1[C@H](O)C[C@H]2C[C@@H]1[C@](C)([C@H](O)CC=C(C)C)O2 | 8 | 4 | 4 | 4 | 2 | 8 | 2 | 2 | 16 | 8 | 8 | – | – | – | – | – | – | –
